In PubChem BioAssay (NCI):
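Test compounds were applied to cells in 96-well plates for 48 hours at 5 doses. GI50 = concentration required for 50% inhibition of growth. TGI is the concentration that stops growth completely.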

Key:
Assay in all cases: NCI anticancer screen, dose series, 48 h
[1] = tested on: RPMI-8226 leukemia
[2] = tested on: SK-OV-3 ovarian
[3] = tested on: HCC-2998 colon
[4] = tested on: DU-145 prostate
[5] = tested on: A549 NSCLC
[6] = tested on: PC-3 prostate
[7] = tested on: KM12 colon
[8] = tested on: SNB-75 CNS
[9] = tested on: HOP-92 NSCLC
[10] = tested on: SF-268 CNS
[11] = tested on: HOP-62 NSCLC
[12] = tested on: OVCAR-4 ovarian
[13] = tested on: SR leukemia
[14] = tested on: HS 578T breast
[15] = tested on: NCI/ADR-RES ovarian
[16] = tested on: HCT-116 colon
[17] = tested on: LOX IMVI melanoma
[18] = tested on: K-562 leukemia
[19] = tested on: CCRF-CEM leukemia
[20] = tested on: NCI-H460 lung
[21] = tested on: ACHN renal
[22] = tested on: CAKI-1 renal
[23] = tested on: 786-0 renal
[24] = tested on: SW-620 colon
[25] = tested on: UACC-62 melanoma
[26] = tested on: IGROV1 ovarian
[27] = tested on: MCF7 breast
[28] = tested on: SF-539 CNS
[29] = tested on: MDA-MB-435
[30] = tested on: RXF 393 renal
[31] = tested on: OVCAR-8 ovarian
[32] = tested on: UACC-257 melanoma
[33] = tested on: OVCAR-5 ovarian
[34] = tested on: T-47D breast
[35] = tested on: HT29 colon
[36] = tested on: EKVX NSCLC
[37] = tested on: BT-549 breast
[38] = tested on: SN12C renal
[39] = tested on: NCI-H23 lung
[40] = tested on: U251 CNS
[41] = tested on: MDA-MB-231 breast
[42] = tested on: NCI-H522 lung
[43] = tested on: COLO 205 colon
[44] = tested on: SNB-19 CNS
[45] = tested on: UO-31 renal
[46] = tested on: OVCAR-3 ovarian
[47] = tested on: HCT-15 colon
[48] = tested on: NCI-H226 lung
[49] = tested on: TK-10 renal
[50] = tested on: MDA-MB-468 breast
[51] = tested on: MOLT-4 leukemia
[52] = tested on: MALME-3M melanoma
[53] = tested on: SK-MEL-5 melanoma
[54] = tested on: SF-295 CNS
[55] = tested on: SK-MEL-2 melanoma
[56] = tested on: HL-60(TB) leukemia
[57] = tested on: A498 renal
[58] = tested on: M14 melanoma
[59] = tested on: SK-MEL-28 melanoma

COc1cc(OC)c2c3nc4cc(C)c(C)cc4nc3n(CCN(C)C)c2c1
GI50 [1]: 19.9 µM | TGI [1]: > 100 µM | GI50 [2]: 16.7 µM | TGI [2]: 32.1 µM | GI50 [3]: 12.7 µM | TGI [3]: 26.1 µM | GI50 [4]: 14.5 µM | TGI [4]: 28.2 µM | GI50 [5]: 4.98 µM | TGI [5]: 22.9 µM | GI50 [6]: 15.5 µM | TGI [6]: 61.4 µM | GI50 [7]: 17.5 µM | TGI [7]: 34.2 µM | GI50 [8]: 12.1 µM | TGI [8]: 25.5 µM | GI50 [9]: 11.5 µM | TGI [9]: 31.1 µM | GI50 [10]: 14.4 µM | TGI [10]: 32.1 µM | GI50 [11]: 5.75 µM | TGI [11]: 22.2 µM | GI50 [12]: 14.9 µM | TGI [12]: 33.6 µM | GI50 [13]: 4.29 µM | TGI [13]: 50.7 µM | GI50 [14]: 15.7 µM | TGI [14]: 39.5 µM | GI50 [15]: 10 µM | TGI [15]: 27.7 µM | GI50 [16]: 13.9 µM | TGI [16]: 30.3 µM | GI50 [17]: 8.99 µM | TGI [17]: 22.7 µM | GI50 [18]: 3.1 µM | TGI [18]: 25.3 µM | GI50 [19]: 22.4 µM | TGI [19]: > 100 µM | GI50 [20]: 12.1 µM | TGI [20]: 26.5 µM | GI50 [21]: 11.1 µM | TGI [21]: 23.1 µM | GI50 [22]: 15.9 µM | TGI [22]: 29.8 µM | GI50 [23]: 14.2 µM | TGI [23]: 29.2 µM | GI50 [24]: 4.65 µM | TGI [24]: 18.7 µM | GI50 [25]: 15.2 µM | TGI [25]: 29.1 µM | GI50 [26]: 12 µM | TGI [26]: 26.1 µM | GI50 [27]: 4.75 µM | TGI [27]: 19.2 µM | GI50 [28]: 15 µM | TGI [28]: 28.3 µM | GI50 [29]: 14.5 µM | TGI [29]: 28.2 µM | GI50 [30]: 11.8 µM | TGI [30]: 25.1 µM | GI50 [31]: 2.4 µM | TGI [31]: 6.84 µM | GI50 [32]: 14.9 µM | TGI [32]: 31.9 µM | GI50 [33]: 15.1 µM | TGI [33]: 29.1 µM | GI50 [34]: 12.9 µM | TGI [34]: 32.1 µM | GI50 [35]: 4.88 µM | TGI [35]: 31.4 µM | GI50 [36]: 14.7 µM | TGI [36]: 28.3 µM | GI50 [37]: 14.2 µM | TGI [37]: 28.5 µM | GI50 [38]: 11.5 µM | TGI [38]: 24.6 µM | GI50 [39]: 13.1 µM | TGI [39]: 27.8 µM | GI50 [40]: 12.8 µM | TGI [40]: 28 µM | GI50 [41]: 11.6 µM | TGI [41]: 24.2 µM | GI50 [42]: 13.5 µM | TGI [42]: 33.6 µM | GI50 [43]: 5.51 µM | TGI [43]: 20 µM | GI50 [44]: 12.9 µM | TGI [44]: 25.7 µM | GI50 [45]: 6.21 µM | TGI [45]: 20.2 µM | GI50 [46]: 16.1 µM | TGI [46]: 30.6 µM | GI50 [47]: 11.4 µM | TGI [47]: 24.7 µM | GI50 [48]: 14.4 µM | TGI [48]: 32.3 µM | GI50 [49]: 16.5 µM | TGI [49]: 31.9 µM | GI50 [50]: 12.8 µM | TGI [50]: 26.4 µM | GI50 [51]: 10.6 µM | TGI [51]: 41.7 µM | GI50 [52]: 14.1 µM | TGI [52]: 28.1 µM | GI50 [53]: 16.1 µM | TGI [53]: 29.8 µM | GI50 [54]: 13.1 µM | TGI [54]: 26.2 µM | GI50 [55]: 16.7 µM | TGI [55]: 35.4 µM | GI50 [56]: 16.3 µM | TGI [56]: 36.4 µM | GI50 [57]: > 100 µM | TGI [57]: > 100 µM | GI50 [58]: 13.5 µM | TGI [58]: 30.6 µM | GI50 [59]: 15.6 µM | TGI [59]: 29.3 µM
